In patent US20250127913A1, “BIFUNCTIONAL FOLATE RECEPTOR BINDING COMPOUNDS” (LYCIA THERAPEUTICS, INC., priority 2021, published 2025):

Key:
THP-1 cells = experiment: Compound mediated uptake of TNFα-pHrodo in THP-1 cells (flow cytometry); format: cell-based; conditions: THP-1 cells, 24 hrs
Procedure: THP-1 cells, a monocytic leukemia cell line that endogenously express folate receptor beta, were used as a model system to measure example compound stimulated uptake of in-house produced TNFα conjugated to the pH sensitive fluorescent dye pHrodo green (ThermoFisher Scientific #P35369).
THP-1 cells were maintained in RPMI (Gibco #61870143) with 10% v/v FBS (VWR #89510-188) with 2 mM L-alanyl-L-glutamine dipeptide, 100 units/ml penicillin and 100 μg/ml streptomycin (Gibco #15140148). Cells were pelleted, resuspended in folate-free RPMI (Gibco #27016021) and seeded at 50,000 cells per well of a 96 well plate. Example compound was added to each well as a log 2 dilution series ranging from 20 μM to 125 nM final concentration. Cells were incubated for 24 hrs and washed/resuspended in phosphate buffered saline (pH 7.4) with 1% w/v BSA. Uptake was measured using a Novocyte Advanteon Flow Cytometer (Agilent Technologies) with the […] and FITC detection configuration.

folate receptor beta [1] = molecular target: T1, folate receptor beta (Homo sapiens (Human), UniProt P14207); experiment: Folate receptor binding assay (fluorescence polarization); conditions: 2.5 nM folate receptor beta, 2 nM FR-Cy probe, 2 hr incubation; read-out: FOLR2-FP
Procedure: Folate receptor binding was measured in black 96-well plates using a fluorescence polarization assay. A fluorescent probe consisting of a folate analog linked to Cy5 (FR-Cy) was custom synthesized.
Test compounds were resuspended in DMSO and 3-fold serial dilutions were made from 300-0.015 μM (100× final concentrations). Binding reactions were conducted in 200 μl final volume in 20 mM Hepes (pH 7.5) 250 mM NaCl 0.0150 Tween-20 1% DMSO with 2.5 nM folate receptor beta (Acro Biosystems) and 2 nM probe. Fluorescence polarization was measured using λex=620 nm, λem=688 nm on an Envision plate reader (Perkin Elmer) after 2 hr incubation time. Dose responses were conducted in duplicate and normalized to the response with DMSO (high) and 1 μM folic acid (low) on each plate. IC50 values were determined by fitting to 4-parameter curves in GraphPad Prism.

[2] = molecular target: TNFα and streptavidin immobilized FOL2R (Homo sapiens (Human), UniProt P01375+P14207); experiment: Ternary complex SPR assay; format: binding; conditions: 10 nM compound, max response normalized to expected response; for TC 150 nM- tagless TNF Normalized: 150 nM untagged TNF; for TC 300 nM- tagless TNF Normalized: 300 nM untagged TNF; for TC 60 nM taggless TNF normalized: 60 nM untagged TNF
Procedure: Folate receptor-TNFα ternary complex SPR assays were conducted on a Biacore 8K instrument (Cytiva) using biotinylated folate receptor beta (Acro Biosystems). Folate receptor was immobilized at -1800 RU on a streptavidin chip (Cytiva) in 10 mM HEPES pH 7.5, 150 mM NaCl, 0.05% Tween 20. Untagged TNF was preincubated with 10 nM compound for 6 hr in 10 mM HEPES pH 7.5, 150 mM NaCl, 0.05 Tween 20, 2% DMSO at 25° C. Samples were then injected over the folate receptor surface at 30 μl/min with an association time of 110 s and a dissociation time of 600 s. Surfaces were regenerated with 4 M MgCl2 at 30 μl/mm for 30 s. The maximum measured response was normalized by comparison to the maximum expected response for each compound.

TNFα = TNFα (Homo sapiens (Human), UniProt P01375); experiment: TNFα binding assay (time-resolved FRET, biotinylated TNFα); conditions: 1 nM biotinylated TNFα, 80 nM probe, 16 hr incubation; read-out: TNF-HTRF-biotin
Procedure: TNFα binding was measured in black 96-well plates using a time-resolved FRET assay using a previously described fluorescence acceptor TNFα probe (Xiao et al J. Med. Chem. 2020). Biotinylated TNFα was purchased from Acro Biosystems. Binding reactions were conducted in 20 mM Hepes (pH 7.5) 10 mM MgCl2 0.015% Tween-20 0.05 mg/ml BSA 2% DMSO with 1 nM TNFα 0.5 nM Streptavidin-Tb and 80 nM probe. Test compounds were resuspended in DMSO and 3-fold serial dilutions were made at 100× final concentrations. Fluorescence was measured using λex=340 nm, λem=490, 520 nm on an SpectraMax M5e plate reader (Molecular Devices) after 16 hr incubation time. Dose responses were conducted in duplicate and normalized to the response with DMSO (high) and 100 nM (R)-3-(1-((3-chloro-7-fluoro-6-(2-(2-hydroxypropan-2-yl)pyrimidin-5-yl)-2-methyl-1,5-naphthyridin-4-yl)amino)ethyl)-4-fluorobenzonitrile (low) on each plate. IC50 values were determined by fitting to 4-parameter curves in GraphPad Prism.

folate receptor beta [3] = molecular target: T1, folate receptor beta; experiment: Folate receptor SPR assay (biotinylated folate receptor beta on streptavidin chip); format: binding
Procedure: Folate receptor SPR binding assays were conducted on a Biacore 8K instrument (Cytiva) using biotinylated folate receptor beta (Acro Biosystems). Briefly, folate receptor was immobilized at -550 RU on a streptavidin chip (Cytiva) in 10 mM HEPES pH 7.5, 150 mM NaCl, 0.05% Tween 20. Multi-cycle kinetic studies were conducted with 8 compound concentrations using 2-fold dilutions in 10 mM HEPES pH 7.5, 150 mM NaCl, 0.05% Tween 20, 2% DMSO at 25° C. A flow rate or 75 μl/mmn with an association time of 120 s and a dissociation time of 600 s were used. Surfaces were regenerated with 4 M MgCl2 at 30 μl/min for 30 s. Data were fit to a 1:1 model to determine the reported binding parameters.

Chain of TNFα and streptavidin immobilized FOL2R (P14207 17-230): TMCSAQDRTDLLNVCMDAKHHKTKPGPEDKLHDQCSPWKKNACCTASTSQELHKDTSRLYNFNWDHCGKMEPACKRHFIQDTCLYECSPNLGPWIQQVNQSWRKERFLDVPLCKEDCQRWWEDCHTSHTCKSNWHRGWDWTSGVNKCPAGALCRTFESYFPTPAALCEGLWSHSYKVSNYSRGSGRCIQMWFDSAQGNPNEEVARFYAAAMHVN
Chain of TNFα and streptavidin immobilized FOL2R (P01375 77-233): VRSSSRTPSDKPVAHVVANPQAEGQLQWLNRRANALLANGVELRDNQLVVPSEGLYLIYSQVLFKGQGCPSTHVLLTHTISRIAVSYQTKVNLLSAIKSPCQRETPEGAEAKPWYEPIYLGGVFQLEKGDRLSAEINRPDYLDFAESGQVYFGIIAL
Chain of TNFα (P01375 77-233): as above
T1 sequence (P14207 17-255): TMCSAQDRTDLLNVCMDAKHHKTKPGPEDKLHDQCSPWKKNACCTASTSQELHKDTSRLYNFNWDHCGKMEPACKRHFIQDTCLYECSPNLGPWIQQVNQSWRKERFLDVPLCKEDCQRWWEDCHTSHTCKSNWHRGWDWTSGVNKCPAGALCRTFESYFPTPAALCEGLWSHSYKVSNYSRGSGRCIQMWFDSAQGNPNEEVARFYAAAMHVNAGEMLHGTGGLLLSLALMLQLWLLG

Structure (SMILES) | IC50 (folate receptor beta [1]) [nM] | TC 300 nM- tagless TNF Normalized [2] [%] | IC50 (TNFα) [nM] | further results
Cc1nc2cc(F)c(-c3cnc(OCCCCCn4cc(COCCOCCOCCOCCNC(=O)[C@H](CCC(=O)O)NC(=O)c5ccc(NCc6cnc7nc(N)nc(O)c7n6)cc5)nn4)nc3)nc2c(N[C@H](C)c2cc(C#N)ccc2F)c1Cl [Compound 1-21] | – | – | – | uptake of labelled TNFα (median fluorescence intensity of pHrodo dye) (THP-1 cells): stimulate uptake of TNFα
Cc1nc2cc(F)c(-c3cnc(N4CCN(C(=O)COCCn5cc(COCCOCCOCCOCCNC(=O)CC[C@H](NC(=O)c6ccc(NCc7cnc8nc(N)nc(O)c8n7)cc6)C(=O)O)nn5)CC4)nc3)nc2c(N[C@H](C)c2cc(C#N)ccc2F)c1Cl [Compound I-45, (S)-18-(4-(((2-amino-4-hydroxypteridin-6-yl)methyl)amino)benzamido)-1-(1-(2-(2-(4-(5-(7-chloro-8-(((R)-1-(5-cyano-2-fluorophenyl)ethyl)amino)-3-fluoro-6-methyl-1,5-naphthyridin-2-yl)pyrimidin-2-yl)piperazin-1-yl)-2-oxoethoxy)ethyl)-1H-1,2,3-triazol-4-yl)-15-oxo-2,5,8,11-tetraoxa-14-azanonadecan-19-oic acid] | 4.2 | 17.6 | 25 | TC 150 nM- tagless TNF Normalized [2]: 16.3%
Cc1nc2cc(F)c(-c3cnc(N4CCN(C(=O)COCCOCCOCCOCCN5CCN(C(=O)CC[C@H](NC(=O)c6ccc(N(C)Cc7cnc8nc(N)[nH]c(=O)c8n7)cc6)C(=O)O)CC5)CC4)nc3)nc2c(N[C@H](C)c2cc(C#N)ccc2F)c1Cl [Compound I-78, (S)-2-(4-(((2-amino-4-oxo-3,4-dihydropteridin-6-yl)methyl)(methyl)amino)benzamido)-5-(4-(14-(4-(5-(7-chloro-8-(((R)-1-(5-cyano-2-fluorophenyl)ethyl)amino)-3-fluoro-6-methyl-1,5-naphthyridin-2-yl)pyrimidin-2-yl)piperazin-1-yl)-14-oxo-3,6,9,12-tetraoxatetradecyl)piperazin-1-yl)-5-oxopentanoic acid] | 9.2 | – | 13 | –
Cc1nc2cc(F)c(-c3cnc(N4CCN(C(=O)COCCOCCOCCOCCOCCOCCn5cc(CC[C@H](NC(=O)c6ccc(SCc7ccc8nc(N)nc(O)c8c7)cc6)C(=O)O)nn5)CC4)nc3)nc2c(N[C@H](C)c2cc(C#N)ccc2F)c1Cl [Compound I-79, (S)-2-(4-(((2-amino-4-hydroxyquinazolin-6-yl)methyl)thio)benzamido)-4-(1-(20-(4-(5-(7-chloro-8-(((R)-1-(5-cyano-2-fluorophenyl)ethyl)amino)-3-fluoro-6-methyl-1,5-naphthyridin-2-yl)pyrimidin-2-yl)piperazin-1-yl)-20-oxo-3,6,9,12,15,18-hexaoxaicosyl)-1H-1,2,3-triazol-4-yl)butanoic acid] | 3.2 | – | 17 | –
Cc1nc2cc(F)c(-c3cnc(N4CC5(CN(C(=O)COCCOCCOCCOCCOCCOCCn6cc(CC[C@H](NC(=O)c7ccc(NCc8cnc9nc(N)nc(O)c9n8)cc7)C(=O)O)nn6)C5)C4)nc3)nc2c(N[C@H](C)c2cc(C#N)ccc2F)c1Cl [Compound I-81, (S)-2-(4-(((2-amino-4-hydroxypteridin-6-yl)methyl)amino)benzamido)-4-(1-(20-(6-(5-(7-chloro-8-(((R)-1-(5-cyano-2-fluorophenyl)ethyl)amino)-3-fluoro-6-methyl-1,5-naphthyridin-2-yl)pyrimidin-2-yl)-2,6-diazaspiro[3.3]heptan-2-yl)-20-oxo-3,6,9,12,15,18-hexaoxaicosyl)-1H-1,2,3-triazol-4-yl)butanoic acid] | 7.1 | 12.1 | 39 | TC 60 nM taggless TNF normalized [2]: 4%
CN(Cc1cnc2nc(N)[nH]c(=O)c2n1)c1ccc(C(=O)N[C@@H](CCc2cn(CCOCCOCCOCCOCCOCCOCC(=O)N3CCN(c4ncc(-c5ccc6nc(COc7cccc(N8CCCC8=O)c7)n(Cc7ccccc7OC(F)F)c6c5)cn4)CC3)nn2)C(=O)O)cc1 [Compound I-83, (S)-2-(4-(((2-amino-4-oxo-3,4-dihydropteridin-6-yl)methyl)(methyl)amino)benzamido)-4-(1-(20-(4-(5-(1-(2-(difluoromethoxy)benzyl)-2-((3-(2-oxopyrrolidin-1-yl)phenoxy)methyl)-1H-benzo[d]imidazol-6-yl)pyrimidin-2-yl)piperazin-1-yl)-20-oxo-3,6,9,12,15,18-hexaoxaicosyl)-1H-1,2,3-triazol-4-yl)butanoic acid] | 5.3 | 17.5 | 28 | TC 60 nM taggless TNF normalized [2]: 14.3%
C[C@@H]1CN(c2ncc(-c3ccc4c(c3)N(Cc3ccccc3OC(F)F)C(C)(C)C4=O)cn2)CCN1C(=O)COCCOCCOCCOCCOCCOCCn1cc(CC[C@H](NC(=O)c2ccc(NCc3cnc4nc(N)nc(O)c4n3)cc2)C(=O)O)nn1 [Compound I-88, (S)-2-(4-(((2-amino-4-hydroxypteridin-6-yl)methyl)amino)benzamido)-4-(1-(20-((R)-4-(5-(1-(2-(difluoromethoxy)benzyl)-2,2-dimethyl-3-oxoindolin-6-yl)pyrimidin-2-yl)-2-methylpiperazin-1-yl)-20-oxo-3,6,9,12,15,18-hexaoxaicosyl)-1H-1,2,3-triazol-4-yl)butanoic acid] | 6.9 | – | 60 | –
Cc1nc2cc(F)c(-c3cnc(N4CCN(C(=O)COCCn5cc(COCCOCCOCCN6CCN(C(=O)[C@H](CCC(=O)O)NC(=O)c7ccc(NCc8cnc9nc(N)nc(O)c9n8)cc7)CC6)nn5)CC4)nc3)nc2c(N[C@H](C)c2cc(C#N)ccc2F)c1Cl [Compound I-97] | 17 | 21.1 | – | TC 150 nM- tagless TNF Normalized [2]: 18.4%; Rmax (folate receptor beta [3]; biotinylated folate receptor beta on streptavidin chip): 17.1 RU; kd (folate receptor beta [3]; multi-cycle kinetics, 25° C., 1:1 model): 0.000798 s⁻¹; Kd (folate receptor beta [3]; multi-cycle kinetics, 25° C., 1:1 model, read-out: FOLR2Biotin - SPR Kd): 0.0914 nM; kon (folate receptor beta [3]; pH 7.5, multi-cycle kinetics, 25° C., 1:1 model, read-out: ka): 8.74e+06 M⁻¹ s⁻¹
